In ChEMBL document CHEMBL1201862, “PubChem BioAssay data set” (2004):
Activity calls are given as the source filed them.

Tests used:
[1] = molecular target: Inward rectifier potassium channel 2 (Mus musculus, UniProt P35561); test: Manual electrophysiological patch clamp assay for SAR compounds that inhibit/block inward-rectifying potassium ion channel Kir2.1. [Related pubchem assays: 1843 (Summary assay for Kir2.1 inhibitor assays.), 1672 (Primary HTS of 305616 compounds where 2592 were identified as active.)]; format: functional
[2] = inhibitors of Bluetongue virus cytopathic effect, confirmation, arbovirus, BSR cells (AID 1250); format: functional;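 further: protection from viral cytopathic effect measured as cell viability by ATP luminescence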
[3] = HEp-2 cell cytotoxicity, dose response, cytotoxicity control for RSV inhibitor project, HTS (AID 2410); format: functional; settings: human respiratory syncytial virus
[4] = molecular target: Luciferin 4-monooxygenase (Photinus pyralis, UniProt P08659); test: Counter Screen for Luciferase-based Assay Positives. [Related pubchem assays: 620, 618, 411 ]
[5] = system: HT-1080; test: cytotoxicity in HT1080 fibrosarcoma cells, cell-based, fluorescence readout (AID 620); format: functional; settings: Homo sapiens
[6] = inhibitors of firefly luciferase expression or activity, dose response, H4 neuroglioma cells, luminescence (AID 1990); format: functional, cell-based
[7] = luciferase reporter signal reduction – luminescence, H4-C neuroglioblastoma cells, dose response (AID 2458); format: functional, cell-based;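 further: H4 neuroglioblastoma cells stably carrying a luciferase reporter gene fusion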
[8] = cells; format: functional, cell-based
[9] = Luminescence Cell-Based Dose Response HTS to Identify Inhibitors of 5'UTR Stem-Loop Driven Prion Protein mRNA Translation in H4 Neuroglioblastoma Cells. [Related pubchem assays: 1827 (Project Summary), 1813 (Primary HTS)]; format: functional
[10] = molecular target: T1, Heat shock factor protein 1 (Mus musculus, UniProt P38532); test: inhibition of MG132-induced HSE-luciferase signal, confirmation, cell-based, NIH3T3, luminescence, dose retest (AID 2382); format: functional;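 further: NIH3T3 fibroblasts with HSF1-driven luciferase reporter stressed by proteasome inhibitor MG132; luminescence from HSF1-driven luciferase expression after 8 hours of MG132 stress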
T1 sequence (P38532 whole entry): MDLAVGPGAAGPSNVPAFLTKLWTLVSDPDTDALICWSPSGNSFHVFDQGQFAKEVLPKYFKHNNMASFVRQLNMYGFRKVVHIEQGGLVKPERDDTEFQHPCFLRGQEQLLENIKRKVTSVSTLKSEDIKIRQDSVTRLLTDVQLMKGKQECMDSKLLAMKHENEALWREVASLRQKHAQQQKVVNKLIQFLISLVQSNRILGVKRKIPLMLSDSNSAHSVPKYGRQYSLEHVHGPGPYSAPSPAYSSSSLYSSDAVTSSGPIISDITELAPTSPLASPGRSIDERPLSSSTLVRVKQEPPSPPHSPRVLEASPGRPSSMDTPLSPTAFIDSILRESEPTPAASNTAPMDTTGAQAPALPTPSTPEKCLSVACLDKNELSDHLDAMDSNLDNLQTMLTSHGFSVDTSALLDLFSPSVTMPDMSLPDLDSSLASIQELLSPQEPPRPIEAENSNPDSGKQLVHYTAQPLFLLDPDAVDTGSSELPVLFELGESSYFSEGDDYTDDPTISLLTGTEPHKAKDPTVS

[11] = inhibitors of SNCA 5'UTR-driven reporter translation, confirmation, H4 neuroglioma cells, luminescence (AID 1988); format: functional, cell-based
[12] = Luminescence-based counterscreen assay for KLF5 inhibitors: dose response cell-based high throughput screening assay to identify cytotoxic compounds using the IEC-6 intestinal epithelial cell line. [Related pubchem assays: 1700 (Primary screen.), 1834 (Confirmation screen.), 1858 (Summary AID.), 1905 (Counterscreen.)]; format: functional
[13] = inhibitors of SNCA 5'UTR-driven translation, confirmation, luminescence, H4 neuroglioblastoma cells, dose confirmation (AID 2454); format: functional, cell-based;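 further: H4 neuroglioblastoma cells carrying an alpha-synuclein 5'UTR luciferase reporter; potency for inhibition of the luciferase signal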
[14] = HepG2 cell cytotoxicity, dose response, cytotoxicity control, plate reader, cherry-pick, antagonist series (AID 743416); format: functional, cell-based
[15] = LGR2 antagonists, dose response, cell-based, HEK293, CRE-luciferase reporter, cherry pick, set 2 (AID 743343); format: functional;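 further: transfected cells were stimulated with diluted bursicon conditioned medium after compound addition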
[16] = MC4R antagonists, dose response, counter-screen for LGR2 antagonist project, cell-based, plate reader, cherry pick (AID 743444); format: functional;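 further: transfected HEK 293 cells stimulated with alpha-MSH peptide; potency of inhibitors of the alpha-MSH evoked signal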
[17] = HEK293 cell cytotoxicity, dose response, cytotoxicity control, plate reader, cherry-picked samples (AID 743446); format: functional, cell-based
[18] = molecular target: T2, Estrogen receptor (Homo sapiens, UniProt P03372); test: potentiators of ERα–SRC-1 coactivator binding, dose response, biochemical, TR-FRET, ERα LBD (AID 737)
T2 sequence (P03372 whole entry): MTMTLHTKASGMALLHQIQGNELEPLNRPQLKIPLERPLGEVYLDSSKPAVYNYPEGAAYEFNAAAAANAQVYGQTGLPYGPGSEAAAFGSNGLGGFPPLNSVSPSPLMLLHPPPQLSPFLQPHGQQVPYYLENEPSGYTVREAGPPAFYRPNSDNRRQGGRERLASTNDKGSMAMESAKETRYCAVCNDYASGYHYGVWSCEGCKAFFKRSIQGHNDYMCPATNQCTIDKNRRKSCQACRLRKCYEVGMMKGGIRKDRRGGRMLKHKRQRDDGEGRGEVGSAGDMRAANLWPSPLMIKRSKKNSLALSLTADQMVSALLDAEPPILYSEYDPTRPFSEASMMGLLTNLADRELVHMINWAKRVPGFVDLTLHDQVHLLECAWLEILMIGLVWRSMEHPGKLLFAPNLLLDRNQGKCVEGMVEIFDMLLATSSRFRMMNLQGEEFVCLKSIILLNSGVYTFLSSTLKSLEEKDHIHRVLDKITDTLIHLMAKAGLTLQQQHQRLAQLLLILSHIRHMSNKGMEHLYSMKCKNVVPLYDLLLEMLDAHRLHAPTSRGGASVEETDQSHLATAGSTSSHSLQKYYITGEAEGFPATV

Luciferin 4-monooxygenase, sequence (P08659 whole entry): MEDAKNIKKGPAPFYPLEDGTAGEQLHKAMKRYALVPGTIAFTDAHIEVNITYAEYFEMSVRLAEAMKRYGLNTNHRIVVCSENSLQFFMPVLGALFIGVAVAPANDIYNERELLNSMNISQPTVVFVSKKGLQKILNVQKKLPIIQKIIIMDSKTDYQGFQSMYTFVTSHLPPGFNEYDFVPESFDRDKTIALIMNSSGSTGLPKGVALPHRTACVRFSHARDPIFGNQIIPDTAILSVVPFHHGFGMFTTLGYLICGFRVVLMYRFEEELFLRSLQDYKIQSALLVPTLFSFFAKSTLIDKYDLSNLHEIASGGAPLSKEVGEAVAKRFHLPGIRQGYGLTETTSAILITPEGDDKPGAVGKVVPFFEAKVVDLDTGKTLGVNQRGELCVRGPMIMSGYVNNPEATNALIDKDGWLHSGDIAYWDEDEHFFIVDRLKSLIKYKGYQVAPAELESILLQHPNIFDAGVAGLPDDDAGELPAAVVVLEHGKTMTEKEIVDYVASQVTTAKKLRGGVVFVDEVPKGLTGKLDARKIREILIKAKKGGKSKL
Inward rectifier potassium channel 2, sequence (P35561 whole entry): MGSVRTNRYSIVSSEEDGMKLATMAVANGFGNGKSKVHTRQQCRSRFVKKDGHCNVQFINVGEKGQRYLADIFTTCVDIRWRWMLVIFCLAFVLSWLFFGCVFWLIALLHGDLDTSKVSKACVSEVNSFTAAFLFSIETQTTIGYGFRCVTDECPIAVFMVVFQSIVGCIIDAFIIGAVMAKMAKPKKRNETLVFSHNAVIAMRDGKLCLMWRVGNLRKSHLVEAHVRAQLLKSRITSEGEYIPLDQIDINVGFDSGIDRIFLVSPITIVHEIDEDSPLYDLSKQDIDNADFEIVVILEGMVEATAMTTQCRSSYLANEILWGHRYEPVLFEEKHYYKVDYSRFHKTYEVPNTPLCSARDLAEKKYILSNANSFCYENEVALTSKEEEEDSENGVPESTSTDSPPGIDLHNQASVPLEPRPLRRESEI

COc1ccc(CNCc2ccc(Cl)cc2Cl)cc1
IC50 [1]: 3.13 µM (active)

COc1ccc(-c2csc(Nc3ccc(C)cn3)n2)cc1OC
IC50 [2]: 35.9 µM (active)

COc1cc(SC)ccc1C(=O)Nc1ccc2c(c1)OCCO2
CC50 [3]: 19.9 µM (active) | EC50 [4]: 75.4 µM (active) | EC50 [5]: > 50 µM (not active)

COCCn1c(C)cc(C2=NN=C(Nc3ccccc3)SC2)c1C
EC50 [4]: 2.49 µM (active) | EC50 [5]: > 50 µM (not active)

CCc1ccn2cc(-c3cc(-c4ccccc4)no3)nc2c1
EC50 [6]: 0.207 µM (active) | EC50 [7]: 1.2 µM (active) | EC50 [8]: > 12 µM (inconclusive) | EC50 [9]: < 0.1 µM (active) | EC50 [10]: < 0.16 µM (active) | EC50 [11]: 0.13 µM (active) | IC50 [12]: > 39.8 µM (not active) | EC50 [13]: 1.12 µM (active) | AC50 [14]: 25.4 µM (active) | AC50 [15]: 0.805 µM (active) | AC50 [16]: 0.701 µM (active) | AC50 [17]: > 52 µM (inactive)

O=C(Nc1nc(-c2ccco2)cs1)c1ccccc1
IC50 [2]: 30.7 µM (active)

Cc1cccc(N2CCN(C(=O)c3cc4c(=O)n(C)c5ccccc5c4n3C)CC2)c1C
EC50 [18]: 12.8 µM (active)
